Data set [1] addresses 5-hydroxytryptamine receptor 2A (Rattus norvegicus, UniProt P14842). Briefly: Displacement of [3H]ketanserin from 5HT2A receptor in rat brain. The data set is classed as tissue-based. For orientation: Displacement assays read how much labelled ligand stays bound in the presence of the test substance.
Data set [2] addresses D(2) dopamine receptor (Rattus norvegicus, UniProt P61169). Briefly: Displacement of [3H]spiperone from dopamine D2 receptor in rat brain. The data set is classed as tissue-based.
The test system of data set [3] is Rattus norvegicus. In words: Blockade of secondary conditioned avoidance response in ip dosed rat. Format: functional.
The subject of data set [4] is Mus musculus. In words: Effect on locomotor activity in ip dosed mouse assessed as motor deficit by rota rod test. Format: functional.
In data set [5] the test system is Mus musculus. Briefly: Reduction of amphetamine-induced hyperactivity in ip dosed mouse. Format: functional.
For data set [6], the target named is D(1A) dopamine receptor (Rattus norvegicus, UniProt P18901). Briefly: Displacement of [3H]SCH-23390 from dopamine D1 receptor in rat brain. Format: tissue-based.
Chain of D(1A) dopamine receptor (P18901 whole entry): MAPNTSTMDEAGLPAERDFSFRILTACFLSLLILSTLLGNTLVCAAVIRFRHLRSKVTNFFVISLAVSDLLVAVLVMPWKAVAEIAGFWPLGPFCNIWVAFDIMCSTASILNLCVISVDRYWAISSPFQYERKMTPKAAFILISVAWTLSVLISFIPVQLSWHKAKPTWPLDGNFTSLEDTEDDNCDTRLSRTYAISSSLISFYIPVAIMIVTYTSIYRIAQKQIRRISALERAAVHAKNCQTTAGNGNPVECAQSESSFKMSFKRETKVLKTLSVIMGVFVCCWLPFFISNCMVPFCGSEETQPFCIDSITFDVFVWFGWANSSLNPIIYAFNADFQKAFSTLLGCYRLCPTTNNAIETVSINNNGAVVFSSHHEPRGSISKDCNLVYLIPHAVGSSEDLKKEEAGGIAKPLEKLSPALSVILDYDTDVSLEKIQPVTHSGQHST
In data set [7] the test system is Rattus norvegicus. Briefly: Blockade of unconditioned avoidance response in ip dosed rat. The data set is classed as functional.
In data set [8] the test system is Mus musculus. In words: Antagonism of amphetamine-induced toxicity in ip dosed mouse. The data set is classed as functional.
The species entered for data set [9] is Rattus norvegicus. In words: Ratio of ED50 for cataleptic activity in rat to ED50 for conditioned avoidance response in rat. Format: functional.
Data set [10] has as its system Rattus norvegicus. Briefly: Cataleptic activity in ip dosed rat. The data set is classed as ADME, organism-based. The conditions noted are these: in vivo.
Data set [11] deals with Rattus norvegicus. In words: Blockade of conditioned avoidance response in ip dosed rat. The data set is classed as functional.

Chain of 5-hydroxytryptamine receptor 2A (P14842 whole entry): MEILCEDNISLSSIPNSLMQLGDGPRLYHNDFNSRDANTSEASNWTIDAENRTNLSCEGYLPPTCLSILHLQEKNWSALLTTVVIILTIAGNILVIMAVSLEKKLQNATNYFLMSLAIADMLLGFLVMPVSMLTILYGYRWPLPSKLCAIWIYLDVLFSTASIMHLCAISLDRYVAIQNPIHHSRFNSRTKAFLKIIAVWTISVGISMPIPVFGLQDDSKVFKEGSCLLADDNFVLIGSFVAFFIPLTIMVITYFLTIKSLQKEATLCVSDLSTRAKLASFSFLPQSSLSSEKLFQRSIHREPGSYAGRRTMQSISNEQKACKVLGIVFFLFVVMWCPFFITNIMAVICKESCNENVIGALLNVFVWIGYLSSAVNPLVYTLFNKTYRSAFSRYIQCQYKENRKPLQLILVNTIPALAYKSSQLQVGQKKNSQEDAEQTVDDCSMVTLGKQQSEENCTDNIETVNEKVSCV
Chain of D(2) dopamine receptor (P61169 whole entry): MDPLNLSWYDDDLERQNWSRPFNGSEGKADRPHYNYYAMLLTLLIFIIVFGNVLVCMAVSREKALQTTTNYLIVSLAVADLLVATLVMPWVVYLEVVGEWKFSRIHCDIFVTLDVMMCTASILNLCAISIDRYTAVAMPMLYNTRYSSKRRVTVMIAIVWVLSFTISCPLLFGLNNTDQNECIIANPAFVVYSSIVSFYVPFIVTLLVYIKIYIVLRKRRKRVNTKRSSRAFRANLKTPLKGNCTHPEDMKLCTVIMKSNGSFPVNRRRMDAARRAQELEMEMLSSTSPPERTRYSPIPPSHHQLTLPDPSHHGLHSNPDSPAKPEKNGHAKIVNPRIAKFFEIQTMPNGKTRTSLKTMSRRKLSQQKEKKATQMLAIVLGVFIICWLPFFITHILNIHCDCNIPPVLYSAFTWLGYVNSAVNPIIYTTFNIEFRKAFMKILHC

For orientation: Ki means the dissociation constant of the complex between target and ligand, obtained from inhibition or displacement. High values mean lower affinity, low ones higher affinity. On to `O=C(CCCN1c2ccccc2C2CC3CNCCN3CC21)c1ccc(F)cc1` (mixture of isomers), for which the Ki in data set [1] and in data set [2] was above 100 µM each time.

A word on the ED50: it is the dose at which the effect has come halfway, by size or by number of responders. As to `O=C(CCCN1CCN2Cc3[nH]c4ccccc4c3CC2C1)c1ccc(F)cc1` (stereo not drawn) [BIRIPERONE], the 50% effective dose (ED50) in [3] is 0.04 mg/kg; in data set [4], 2.55 mg/kg; in data set [5] it was 0.75 mg/kg; in data set [7] it was 9.8 mg/kg; in data set [8], 1 mg/kg; in data set [10], 0.86 mg/kg. Besides, the ED50 in data set [11] came out at 0.09 mg/kg. Further, the Ki in data set [6] was 0.425 µM; in data set [1] it was 0.024 µM; in data set [2], 0.0132 µM. Moreover, the Ratio in data set [9] was 9.5.

Take `O=C(CCCN1CCN2CC3Nc4ccccc4C3CC2C1)c1ccc(F)cc1` (stereo not drawn): the Ki in [1] was 0.0925 µM; in data set [2], 0.0938 µM.

With `O=C(CCCN1CCC(O)(c2ccc(Cl)cc2)CC1)c1ccc(F)cc1` [HALOPERIDOL], the figures for the median effective dose (ED50) in data set [3] and in data set [11] were 0.04 mg/kg and 0.1 mg/kg, respectively.

Regarding `O=C(CCCN1CCN2CC3C(CC2C1)c1ccccc1N3CCCC(=O)c1ccc(F)cc1)c1ccc(F)cc1` (stereo not drawn), the ED50 was 0.01 mg/kg in data set [3]; 4.33 mg/kg in data set [4]; 1.71 mg/kg in data set [5]; 5.6 mg/kg in data set [7]; 5.75 mg/kg in [8]; 0.88 mg/kg in data set [10]. In [11], this compound yielded a median effective dose (ED50) of 0.07 mg/kg. Moreover, the Ki was 0.000643 µM in data set [6], 0.00935 µM in data set [1] and 2.25 µM in data set [2]. The Ratio in data set [9] amounted to 12.6.

The values above are taken from ChEMBL document CHEMBL1137517, “Rational design, synthesis and evaluation of (6aR( *),11bS( *))-1-(4-fluorophenyl)-4-{7-[4-(4-fluorophenyl)-4-oxobutyl]1,2,3,4,6,6a,7,11b,12,12a(RS)-decahydropyrazino[2',1':6,1]pyrido[3,4-b]indol-2-yl}-butan-1-one as a potential neuroleptic agent” (Bioorg Med Chem, 2007).
